Where two headings read alike, the source gives them in different places. Starred links: 1 amine or outer side, 2 acyl side, 3 side chain; linkers in the order of their positions; H or OH if unused. Positions of bridges follow the written chain, without caps; N, C: chain ends. Non-standard residues stand in square brackets, D forms with d. Residues, ends and D or L forms follow the SMILES beside them. *: point of attachment. Butanoyl(4-(4-I-phenyl)) = O=C(CCCc1ccc(I)cc1)*; TBMB = c1c(C[*:1])cc(C[*:3])cc1C[*:2]; Benzoyl(3-I) = O=C(c1cccc(I)c1)*; 4Abz = Nc1ccc(C(=O)O)cc1
Test: Biodistribution in U-87 MG tumor-bearing mice
Assay type: in vivo, BALB/c nu-nu mice
Conditions: male, BALB/c nu-nu, mouse, iv, 37 kBq, total radioactivity; for tissue uptake at 5 min: 5 min after i.v. administration; for tissue uptake at 5 min / tissue uptake at 0.5 h / tissue uptake at 1 h / tissue uptake at 2 h / tissue uptake at 6 h / tissue uptake at 12 h / tissue uptake at 24 h: U-87 MG-bearing mice, mean ± SD, n = 3; for tissue uptake at 0.5 h: 30 min after i.v. administration; for tissue uptake at 1 h: 1 h after i.v. administration; for tissue uptake at 2 h: 2 h after i.v. administration; for tissue uptake at 6 h: 6 h after i.v. administration; for tissue uptake at 12 h: 12 h after i.v. administration; for tissue uptake at 24 h: 24 h after i.v. administration
Protocol: Animal experiments were performed in compliance with institutional animal care regulations, with the study protocol approved by the Experimental Animal Committee of Osaka Medical and Pharmaceutical University (Approval Numbers: 21–76, 22–76, and 23–76). Four-week-old male BALB/c nu-nu mice (Japan SLC, Shizuoka, Japan) were housed under a 12 h light/12 h dark cycle with free access to food and water. Tumor-bearing mice were established by suspending U-87 MG cells (2 × 10^6 cells/mouse) in PBS(–) and subcutaneously injecting 100 μL of the suspension into the right hind leg. For co-implantation models, A549 cells (2 × 10^6 cells/mouse) were suspended in PBS(–) and inoculated (100 μL) into the left hind leg of the same mice already inoculated with U-87 MG cells. Mice with tumor size approximately 10 mm in diameter, 4–5 weeks after inoculation, were used for biodistribution studies. Animals in which either tumor was not viable were excluded from the experiment.
U-87 MG-bearing mice (n = 42, 8–9 weeks old; 22–27 g) were randomly assigned into groups and administered [^125I]bcRGDpal or [^125I]bcRGDiba via intravenous injection (37 kBq in 100 μL of PBS containing 0.1% Tween 80 (PBS-T80)). At 5 min, 30 min, 1 h, 2 h, 6 h, 12 h, or 24 h post-injection, the mice were euthanized (n = 3 per time point). The heart, kidneys, liver, brain, pancreas, spleen, lung, small intestine, large intestine, muscle, skin, stomach, bone, and tumors were excised. Each organ’s weight and radioactivity were measured by a NaI well-type scintillation counter, and the % ID/g was calculated. To investigate the correlation between integrin expression and radioactivity accumulation, biodistribution at 2 h after administration of [^125I]bcRGDpal or [^125I]bcRGDiba was assessed in A549 and U-87 MG co-implantation mice (n = 5) using the same procedure. Additionally, co-implantation mice were injected with [^125I]bcRGDdimer (37 kBq/100 μL PBS-T80) and euthanized at 30 min, 2 h, and 4 h post-injection (n = 4 per time point), and % ID/g values were calculated as described above. The minimum sample size needed for the biodistribution study in U-87 MG-bearing mice was calculated using G Power software version 3.1.9.7. The calculation was based on a two-tailed test, with an effect size of 3.9, a significance level (α) of 0.05, and a statistical power (1 − β) of 0.8. […] The minimum required sample size for the biodistribution study in A549 and U-87 MG co-implantation mice was also calculated to be four animals per group (effect size = 2.5, α = 0.05, 1 − β = 0.8). To guarantee objective results, the experiment was carried out in a blinded manner. Specifically, drug administration and radioactivity measurements were conducted by different investigators to eliminate potential bias.

[1] = U-87 MG tumor, read-out: Radioactivity in U-87 MG tumor
[2] = blood, read-out: Radioactivity in blood
[3] = bone, read-out: Radioactivity in bone
[4] = brain, read-out: Radioactivity in brain
[5] = heart, read-out: Radioactivity in heart
[6] = kidneys, read-out: Radioactivity in kidneys
[7] = large intestine, read-out: Radioactivity in large intestine
[8] = liver, read-out: Radioactivity in liver

## N=C(N)NCCC[C@@H]1NC(=O)[C@H]2CSCc3cc(cc(c3)CSC[C@H](C(N)=O)NC(=O)[C@H](CC(=O)O)NC(=O)CNC1=O)CSC[C@H](NC(=O)CNC(=O)[C@H](CO)NC(=O)c1ccc(NC(=O)CNC(=O)[C@H](CO)NC(=O)[C@@H]3CCCN3C(=O)[C@@H]3CCCN3C(=O)[C@@H]3CCCN3C(=O)[C@H](CCCCNC(=O)c3cccc(I)c3)NC(=O)CCCc3ccc(I)cc3)cc1)C(=O)N[C@@H](Cc1c[nH]cn1)C(=O)N1CCC[C@H]1C(=O)N[C@@H](CCC(N)=O)C(=O)N2 [[^125I]bcRGDiba] ({Butanoyl(4-(4-I-phenyl))}-K(Benzoyl(3-I))PPPSG[4Abz]SGCHPQ[dC]RGD[dC]-NH2; linker 10-14-18 via TBMB)
[1]
  tissue uptake at 5 min: 2.2 ± 0.5 %ID/g
  tissue uptake at 0.5 h: 3.4 ± 0.5 %ID/g
  tissue uptake at 1 h: 3.6 ± 0.8 %ID/g
  tissue uptake at 2 h: 3.6 ± 0.7 %ID/g
  tissue uptake at 6 h: 2.9 ± 0.4 %ID/g
  tissue uptake at 12 h: 1.4 ± 0.3 %ID/g
  tissue uptake at 24 h: 0.5 ± 0.1 %ID/g
U-87 MG tumor/blood, all time points (5 min to 24 h)
  tissue to tissue ratio: < 1
[2]
  tissue uptake at 5 min: 23.3 ± 2.9 %ID/g
  tissue uptake at 0.5 h: 18.5 ± 1 %ID/g
  tissue uptake at 1 h: 15.4 ± 1.2 %ID/g
  tissue uptake at 2 h: 14 ± 1.5 %ID/g
  tissue uptake at 6 h: 8.5 ± 1 %ID/g
  tissue uptake at 12 h: 3.9 ± 0.7 %ID/g
  tissue uptake at 24 h: 1.4 ± 0.1 %ID/g
[3]
  tissue uptake at 5 min: 1.7 ± 0.3 %ID/g
  tissue uptake at 0.5 h: 1.9 ± 0.6 %ID/g
  tissue uptake at 1 h: 1.6 ± 0.4 %ID/g
  tissue uptake at 2 h: 1.5 ± 0.3 %ID/g
  tissue uptake at 6 h: 1.3 ± 0.1 %ID/g
  tissue uptake at 12 h: 0.6 ± 0.2 %ID/g
  tissue uptake at 24 h: 0.3 ± 0.1 %ID/g
[4]
  tissue uptake at 5 min: 0.6 ± 0.2 %ID/g
  tissue uptake at 0.5 h: 0.4 ± 0.1 %ID/g
  tissue uptake at 1 h: 0.4 %ID/g
  tissue uptake at 2 h: 0.3 %ID/g
  tissue uptake at 6 h: 0.2 %ID/g
  tissue uptake at 12 h: 0.1 %ID/g
[5]
  tissue uptake at 5 min: 7.4 ± 1.4 %ID/g
  tissue uptake at 0.5 h: 5.3 ± 0.5 %ID/g
  tissue uptake at 1 h: 4.5 ± 0.8 %ID/g
  tissue uptake at 2 h: 4.2 ± 0.1 %ID/g
  tissue uptake at 6 h: 2.7 ± 0.2 %ID/g
  tissue uptake at 12 h: 1.3 ± 0.1 %ID/g
  tissue uptake at 24 h: 0.5 %ID/g
[6]
  tissue uptake at 5 min: 7.8 ± 0.5 %ID/g
  tissue uptake at 0.5 h: 7.1 ± 1.4 %ID/g
  tissue uptake at 1 h: 7.3 ± 0.4 %ID/g
  tissue uptake at 2 h: 5.5 ± 0.3 %ID/g
  tissue uptake at 6 h: 3.9 ± 0.4 %ID/g
  tissue uptake at 12 h: 1.8 ± 0.1 %ID/g
  tissue uptake at 24 h: 0.8 ± 0.1 %ID/g
[7]
  tissue uptake at 5 min: 1.5 ± 0.7 %ID/g
  tissue uptake at 0.5 h: 1 ± 0.1 %ID/g
  tissue uptake at 1 h: 1 ± 0.1 %ID/g
  tissue uptake at 2 h: 7.1 ± 2 %ID/g
  tissue uptake at 6 h: 11.3 ± 2 %ID/g
  tissue uptake at 12 h: 3.4 ± 1 %ID/g
  tissue uptake at 24 h: 2.2 ± 0.2 %ID/g
[8]
  tissue uptake at 5 min: 7.6 ± 0.5 %ID/g
  tissue uptake at 0.5 h: 6.9 ± 0.2 %ID/g
